Source: ChEMBL document CHEMBL6083182, “Development of Peptide Paratope Mimics Derived from the Anti-ROR1 Antibody and Long-Acting Peptide-Drug Conjugates for Targeted Cancer Therapy” (J Med Chem, 2024)
Activity calls are given as the source filed them. No cut-off for these calls is given here. Where a SMILES comes first, the peptide text is derived from it. [ ]: non-standard residue; d: D form. The star is where a group is joined. X1 = COc1cccc2c1C(=O)c1c(O)c3c(c(O)c1C2=O)C[C@@](O)(C(=O)CO)C[C@@H]3O[C@H]1C[C@H](NC(=O)OCc2ccc(NC(=O)C(CCCNC(N)=O)NC(=O)C(NC(=O)CCCCCN3C(=O)CC(*)C3=O)C(C)C)cc2)[C@H](O)[C@H](C)O1; C18 diacid = O=C(O)CCCCCCCCCCCCCCCCC(=O)*; AEEA = NCCOCCOCC(=O)O

What was measured:
MDA-MB-231 [1] = assay: Cytotoxicity against ROR1-positive human MDA-MB-231 cells assessed as decrease in cell viability incubated for 24 hrs by CCK-8 assay; assay type: functional, cell-based; settings: MDA-MB-231, 24 h
SK-HEP1 = assay: Cytotoxicity against human SK-HEP1 cells assessed as decrease in cell viability incubated for 24 hrs by CCK-8 assay; assay type: functional, cell-based; settings: SK-HEP1, 24 h
MCF7 = assay: Cytotoxicity against ROR1-negative human MCF7 cells assessed as decrease in cell viability incubated for 24 hrs by CCK-8 assay; assay type: functional, cell-based; settings: MCF7, 24 h
[2] = Cytotoxicity against human MCF-10A cells assessed as decrease in cell viability incubated for 24 hrs by CCK-8 assay; assay type: toxicity, cell-based
[3] = Half life in Sprague-Dawley rat at 15 mg/kg, iv measured upto 12 hrs by UPLC-QTOF/MS analysis; assay type: ADME, organism-based; settings: in vivo
[4] = Clearance in Sprague-Dawley rat at 15 mg/kg, iv measured upto 12 hrs by UPLC-QTOF/MS analysis; assay type: ADME, organism-based; settings: in vivo
[5] = AUC(0 to t) in Sprague-Dawley rat at 15 mg/kg, iv measured upto 12 hrs by UPLC-QTOF/MS analysis; assay type: ADME, organism-based; settings: in vivo
[6] = AUC(0 to infinity) in Sprague-Dawley rat at 15 mg/kg, iv measured upto 12 hrs by UPLC-QTOF/MS analysis; assay type: ADME, organism-based; settings: in vivo
[7] = Area under the first moment curve in Sprague-Dawley rat at 15 mg/kg, iv measured upto 12 hrs by UPLC-QTOF/MS analysis; assay type: ADME, organism-based; settings: in vivo
[8] = MRT in Sprague-Dawley rat at 15 mg/kg, iv measured upto 12 hrs by UPLC-QTOF/MS analysis; assay type: ADME, organism-based; settings: in vivo
[9] = target: Inactive tyrosine-protein kinase transmembrane receptor ROR1 (Homo sapiens, UniProt Q01973); assay: Binding affinity to N-terminal His/GST-tagged recombinant human ROR1 (453 to 783 residues) extracted from baculovirus infected insect cells assessed as dissociation constant by SPR analysis
Inactive tyrosine-protein kinase transmembrane receptor ROR1, sequence (Q01973 whole entry, the tested form may be a part): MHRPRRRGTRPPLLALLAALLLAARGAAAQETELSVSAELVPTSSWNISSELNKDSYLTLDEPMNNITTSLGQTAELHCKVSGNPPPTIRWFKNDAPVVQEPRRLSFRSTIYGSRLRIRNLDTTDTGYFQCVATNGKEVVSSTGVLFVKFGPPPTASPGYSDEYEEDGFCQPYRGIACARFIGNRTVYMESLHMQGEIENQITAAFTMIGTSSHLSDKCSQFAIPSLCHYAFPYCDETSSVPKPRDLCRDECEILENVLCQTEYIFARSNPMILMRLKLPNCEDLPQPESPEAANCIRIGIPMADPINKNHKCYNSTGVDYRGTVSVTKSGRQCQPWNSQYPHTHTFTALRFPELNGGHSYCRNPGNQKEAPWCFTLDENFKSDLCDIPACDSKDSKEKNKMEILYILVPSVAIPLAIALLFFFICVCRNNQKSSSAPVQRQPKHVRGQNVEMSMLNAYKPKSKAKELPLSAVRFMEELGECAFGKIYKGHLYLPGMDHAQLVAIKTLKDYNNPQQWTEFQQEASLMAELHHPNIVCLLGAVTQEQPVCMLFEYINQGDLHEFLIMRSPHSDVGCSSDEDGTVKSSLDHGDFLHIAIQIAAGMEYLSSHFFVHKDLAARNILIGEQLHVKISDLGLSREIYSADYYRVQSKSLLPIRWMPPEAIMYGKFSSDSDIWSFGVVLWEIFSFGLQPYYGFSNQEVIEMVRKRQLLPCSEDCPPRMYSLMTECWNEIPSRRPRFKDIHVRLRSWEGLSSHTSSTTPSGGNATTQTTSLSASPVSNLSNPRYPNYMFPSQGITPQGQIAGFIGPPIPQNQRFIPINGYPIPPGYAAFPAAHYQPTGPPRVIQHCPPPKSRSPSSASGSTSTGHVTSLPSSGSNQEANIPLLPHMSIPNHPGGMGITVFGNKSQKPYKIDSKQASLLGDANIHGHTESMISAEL

[10] = Drug uptake in ROR1-positive human MDA-MB-231 cells cytoplasm assessed as increase in red fluorescence at 10 uM measured after 2 hrs by Hoechst 33342 staining based confocal fluorescence microscopic analysis; assay type: ADME, subcellular; settings: mda-mb-231, 2 h
[11] = Drug uptake in ROR1-negative human MCF7 cells assessed as increase in fluorescence intensity at 10 uM incubated for 2 hrs by Hoechst 33342 staining based confocal fluorescence microscopic analysis; assay type: ADME, cell-based; settings: mcf7, 2 h
MDA-MB-231 [12] = assay: Induction of apoptosis in human MDA-MB-231 cells at 10 uM incubated for 24 hrs by Annexin V-FITC/PI staining based flow cytometric analysis; assay type: functional, cell-based
MDA-MB-231 [13] = assay: Induction of apoptosis in human MDA-MB-231 cells assessed as viable cells at 16 nM incubated for 24 hrs by AnnexinV-FITC/PI staining based flow cytometry (reference value: 99.9%); assay type: functional; settings: read-out: Activity
MDA-MB-231 [14] = assay: Induction of apoptosis in human MDA-MB-231 cells assessed as early apoptotic cells at 16 nM incubated for 24 hrs by AnnexinV-FITC/PI staining based flow cytometry (reference value: 0%); assay type: functional
MDA-MB-231 [15] = assay: Induction of apoptosis in human MDA-MB-231 cells assessed as late apoptotic cells at 16 nM incubated for 24 hrs by AnnexinV-FITC/PI staining based flow cytometry (reference value: 0.034%); assay type: functional
MDA-MB-231 [16] = assay: Induction of apoptosis in human MDA-MB-231 cells assessed as necrotic cells at 16 nM incubated for 24 hrs by AnnexinV-FITC/PI staining based flow cytometry (reference value: 0.034%); assay type: functional
MDA-MB-231 [17] = assay: Induction of apoptosis in human MDA-MB-231 cells assessed as viable cells at 15 nM incubated for 24 hrs by AnnexinV-FITC/PI staining based flow cytometry (reference value: 99.9%); assay type: functional; settings: read-out: Activity
MDA-MB-231 [18] = assay: Induction of apoptosis in human MDA-MB-231 cells assessed as early apoptotic cells at 15 nM incubated for 24 hrs by AnnexinV-FITC/PI staining based flow cytometry (reference value: 0%); assay type: functional
MDA-MB-231 [19] = assay: Induction of apoptosis in human MDA-MB-231 cells assessed as late apoptotic cells at 15 nM incubated for 24 hrs by AnnexinV-FITC/PI staining based flow cytometry (reference value: 0.034%); assay type: functional
MDA-MB-231 [20] = assay: Induction of apoptosis in human MDA-MB-231 cells assessed as necrotic cells at 15 nM incubated for 24 hrs by AnnexinV-FITC/PI staining based flow cytometry (reference value: 0.034%); assay type: functional
[21] = Toxicity in BALB/c nude mouse xenografted with human MDA-MB-231 cells assessed as change in body weight at 5 mg/kg, iv measured after first injection starting from day 3 on day 6; assay type: organism-based; settings: in vivo, 72 h, time 3 day
MDA-MB-231 [22] = assay: Antitumor activity against human MDA-MB-231 cells xenografted in BALB/c nude mouse assessed as reduction in tumor volume at 5 mg/kg, iv measured after first injection starting from day 3 on day 6; assay type: functional, organism-based; settings: time 3.0 day
[23] = Toxicity in BALB/c nude mouse xenografted with human MDA-MB-231 cells assessed as body weight loss at 5 mg/kg, iv administered once every 3 days for 27 days starting from day 3; assay type: organism-based; settings: in vivo, 576 h, time 24 day
MDA-MB-231 [24] = assay: Antitumor activity against human MDA-MB-231 cells xenografted in BALB/c nude mouse assessed as tumor growth inhibition at 5 mg/kg, iv administered once every 3 days for 27 days starting from day 3; assay type: functional, organism-based; settings: time 24.0 day
[25] = Toxicity in BALB/c nude mouse xenografted with human MDA-MB-231 cells assessed as effect on heart at 5 mg/kg, iv administered once every 3 days for 27 days starting from day 3 by H and E staining based analysis; assay type: organism-based; settings: in vivo, 576 h, time 24 day
[26] = Toxicity in BALB/c nude mouse xenografted with human MDA-MB-231 cells assessed as effect on liver at 5 mg/kg, iv administered once every 3 days for 27 days starting from day 3 by H and E staining based analysis; assay type: organism-based; settings: in vivo, 576 h, time 24 day
[27] = Toxicity in BALB/c nude mouse xenografted with human MDA-MB-231 cells assessed as effect on spleen at 5 mg/kg, iv administered once every 3 days for 27 days starting from day 3 by H and E staining based analysis; assay type: organism-based; settings: in vivo, 576 h, time 24 day
[28] = Toxicity in BALB/c nude mouse xenografted with human MDA-MB-231 cells assessed as effect on lung at 5 mg/kg, iv administered once every 3 days for 27 days starting from day 3 by H and E staining based analysis; assay type: organism-based; settings: in vivo
[29] = Toxicity in BALB/c nude mouse xenografted with human MDA-MB-231 cells assessed as effect on kidney at 5 mg/kg, iv administered once every 3 days for 27 days starting from day 3 by H and E staining based analysis; assay type: organism-based; settings: in vivo
[30] = Toxicity in BALB/c nude mouse xenografted with human MDA-MB-231 cells assessed as effect on ALT level at 5 mg/kg, iv administered once every 3 days for 27 days starting from day 3; assay type: organism-based; settings: in vivo, 576 h, time 24 day
[31] = Toxicity in BALB/c nude mouse xenografted in human MDA-MB-231 cells assessed as effect on AST level at 5 mg/kg, iv administered once every 3 days for 27 days starting from day 3; assay type: organism-based; settings: in vivo, 576 h, time 24 day
[32] = Elimination rate constant in Sprague-Dawley rat at 15 mg/kg, iv measured upto 12 hrs by UPLC-QTOF/MS analysis; assay type: ADME, organism-based; settings: in vivo

- Kd [9]: 1.72 nM
- Drug uptake [10]: Active
- Drug uptake [11]: Not_active
Compound: CC[C@H](C)[C@H](NC(=O)[C@H](CC(=O)O)NC(=O)[C@H](CO)NC(=O)CNC(=O)[C@H](CSC1CC(=O)N(CCCCCC(=O)NC(C(=O)NC(CCCNC(N)=O)C(=O)Nc2ccc(COC(=O)N[C@H]3C[C@H](O[C@H]4C[C@](O)(C(=O)CO)Cc5c(O)c6c(c(O)c54)C(=O)c4c(OC)cccc4C6=O)O[C@@H](C)[C@H]3O)cc2)C(C)C)C1=O)NC(=O)CNC(=O)[C@H](CCCCN)NC(=O)COCCOCCNC(=O)COCCOCCNC(=O)[C@H](CCC(=O)O)NC(=O)CCCCCCCCCCCCCCCCC(=O)O)C(=O)N[C@@H](CC(N)=O)C(=O)N[C@@H](CC(=O)O)C(=O)N[C@@H](CCCNC(=N)N)C(=O)N[C@@H](CCC(N)=O)C(=O)N[C@H](C(=O)N1CCC[C@H]1C(=O)NCC(=O)N[C@@H](Cc1ccc(O)cc1)C(=O)N[C@@H](CO)C(=O)N[C@H](C(=O)N[C@@H](Cc1ccc(O)cc1)C(=O)N[C@@H](Cc1c[nH]c2ccccc12)C(=O)NCC(=O)N[C@@H](CC(=O)O)C(=O)N[C@@H](Cc1ccccc1)C(N)=O)[C@@H](C)O)[C@@H](C)CC (some centres undefined) ({C18 diacid}-E[AEEA][AEEA]KGC(X1)GSDINDRQIPGYSTYWGDF-NH2)
- IC50 (MDA-MB-231 [1]): 15 nM
- IC50 (SK-HEP1): 576 nM
- IC50 (MCF7): 10500 nM
- IC50 at 24 h [2]: 23200 nM
- half-life [3]: 2.62 h
- CL [4]: 0.001 mg/ng/mL/h
- AUCt [5]: 55100 ng·h/mL
- AUC(0-inf) [6]: 57800 ng·h/mL
- AUMC [7]: 217552.348 ng/mL.hr^2
- MRT [8]: 3.78 h
- Activity (MDA-MB-231 [12]): Active; Exhibited Apoptosis Primarily In Early Stage
- viability at 0.016 µM (MDA-MB-231 [13]): 50.3%
- Activity (MDA-MB-231 [14]): 39.7%
- Activity (MDA-MB-231 [15]): 9.51%
- Activity (MDA-MB-231 [16]): 0.5%
- viability at 0.015 µM (MDA-MB-231 [17]): 80.1%
- Activity (MDA-MB-231 [18]): 13.3%
- Activity (MDA-MB-231 [19]): 5.59%
- Activity (MDA-MB-231 [20]): 1.02%
- Activity [21]: Non-toxic
- Activity (MDA-MB-231 [22]): inactive
- Activity [23]: Non-toxic
- Activity (MDA-MB-231 [24]): Active
- Activity [25]: Non-toxic
- Activity [26]: Non-toxic
- Activity [27]: Non-toxic
- Activity [28]: Non-toxic
- Activity [29]: Non-toxic
- Activity [30]: Toxic
- Activity [31]: Toxic
- k el at 12 h [32]: 8.92e-05 s⁻¹
